In patent US20060013822A1, “Utilization of mhc class II binding motifs in immunization to produce immune, serum, monoclonal antibodies and vaccines” (priority 2002, published 2006):
“Also recorded” adds a separate entry of the source.

Assays:
C57B1/6J mice = assay: Antibody response in sera of immunized C57B1/6J mice, fluorescence ELISA for anti-TR3 binding antibodies; type: in vivo, mouse; conditions: immune sera collected after four weeks
Description: C57B1/6J mice were immunized with the native TR3 peptide 1-32 or with an altered TR3 sequence that contains a Threonine (T) to Phenylalanine (F) alteration at amino acid position 4 to introduce a known C57B1/6J MHC Class II binding motif. Immune sera were collected after four weeks and assessed for anti-TR3 binding antibodies by fluorescence ELISA.
(§1) The serum from rats immunized with TR3 peptide 1-32 were tested in a standard ELISA for epitope specificity. The protocol for ELISA has been described previously in (Tittle, Molecular Immunology 26:343-350, 1989), except that the substrate (methylumbelliferyl phosphate, MUP, Sigma-Aldrich, St. Louis, Mo.) was read fluorometrically rather than calorimetrically as with NPP (Nitrophenyl phosphate).
A T to F change in the sequence of TR3 at AA4 an H-2^b binding motif was generated and C57B1/6J mice were immunized with the native TR3 peptide or with the T-F variant peptide.

[1] = system: Lymph node T cells from TR3 peptide 1-13 immune animals; assay: Standard T cell proliferation assay (3H-thymidine incorporation); type: cell-based, Lewis rat; conditions: T cells from TR3 peptide 1-13 immune Lewis rats with antigen presenting cells; after 48 hours in culture, 18 hour period
Description: Lymph node T cells from TR3 peptide 1-13 immune animals were cultured in the presence of antigen presenting cells and either TR3 peptide 1-13 or TR3 peptide 14-32. ^3H-thymidine incorporation was assessed after 48 hours in culture for an 18 hour period. The T cells responded in this standard T cell proliferation assay to TR3 peptide 1-13 but not to TR3 peptide 14-32. […] This implies that the missing component is a B cell epitope.
(§2) Two peptides were synthesized, TR3 peptide 1-13 and TR3 peptide 1-32. Both contain the binding motif but only one was long enough to have a portion hanging outside of the MHC Class II binding cleft. Lewis rats were immunized with one or the other of these peptides and sera tested for the presence of antibodies that would recognize the TR31-32 peptide before and after immunization.

Lewis rats = assay: Antibody response in sera of immunized Lewis rats, fluorescence ELISA on TR3 peptide coated plates; type: in vivo, Lewis rat; conditions: bled after six weeks; for antibody titer against TR3 peptide 1-32 in sera of rats immunized with the peptide: TR31-32 coated plates, before and after immunization
Description: Rats were immunized and rested for four weeks. Immune sera were assayed at 1:5000 and compared to pre-immune titers by fluorescence ELISA (see below) using TR3 peptide 1-32 coated plates.
Lewis rats were immunized with TR3 peptide 1-13 and after six weeks the animals were bled and sera tested for binding to TR31-13 or TR31-32 coated plates using fluorescence ELISA.
as §2, §1

Substance	detectable anti-TR3 binding antibodies in immune sera of mice immunized with the peptide (C57B1/6J mice)	detectable anti-TR3 binding antibodies in immune sera of mice immunized with the peptide (C57B1/6J mice; listed as T-F variant peptide)	T cell proliferative response to the peptide in culture (3H-thymidine incorporation) [1]	antibody titer against TR3 peptide 1-13 in sera of rats immunized with the peptide (Lewis rats; TR31-13 coated plates)	antibody titer against TR3 peptide 1-32 in sera of rats immunized with the peptide (Lewis rats)	antibody titer against TR3 peptide 1-32 in sera of rats immunized with the peptide (Lewis rats; listed as TR3 peptide)
QGGFRSPRCDCAGDFHKKIGLFCCRGCPAGHY (Altered TR3 peptide with MHC class II binding motif from amino acids 4 through 12.; listed as Homo sapiens)	made an anti-TR3 response	immunogenic and induced an antibody response				
QGGTRSPRCDCAG (MEQRPRGCAAVAA) [TR3 peptide 1-13]			very strong T cell responses; also recorded: good T-cell response	No detectable antibody	No detectable antibody	no appreciable antibody titer
TR3 peptide 14-32: amino acids 14-32 of the TR-3 peptide, extended peptide shown to be the B cell epitope (ALLLVLLGARAQGGTRSPR)			not			
